Measured values taken from patent US6803224B2, “Regulated expression of cloned genes using a cascade genetic circuit” (priority 2000, dated 2004).
Read-outs that look alike come from different tables or passages of the source.

What was measured:
xylS2/Pm = assay: β-galactosidase induction, simple circuit xylS2/Pm::lacZ in chromosome (E. coli CC118FH26); assay type: cell-based; conditions: E. coli CC118FH26, 5 hours at 30° C.
Text: (§1) This example illustrates how the effector molecules NahR and XylS2 can synergistically amplify gene expression when integrated properly into a cascade genetic circuit.

nahR/Psal = assay type: cell-based, E. coli; conditions: for Induction ratio of β-galactosidase activity: nahR/Psal, E. coli CC118RSL9, 5 hours at 30° C.
Text: as §1

[1] = test system: xylS2/Pm::lacZ (pCNB2-lacZ); conditions: CC118λpir pCNB2-lacZ, salicylate 2 mM, 5 hours
[2] = test system: xylS2/Pm::nahR and Psal::trp'::'lacZ; conditions: E. coli 2NRSL7, salicylate 2 mM
[3] = test system: nahR4/Psal::xylS/Pm::trp'::'lacZ
nahR/Psal::xylS2/Pm [4] = assay type: cell-based, E. coli
Text: as §1

[5] = test system: nahR/Psal::lacZ (pCNB4-lacZ); conditions: CC118λpir pCNB4-lacZ, salicylate 2 mM, 5 hours
nahR/Psal::xylS2/Pm [6] = conditions: CC4S2PMT97, salicylate 2 mM, 30° C., 5 hours
Description: The pool of bacteria growing on streptomycin 25 mg/l and rifampicin 50 mg/l was used as recipient in a mating with donor strain E. coli S17-1(λpir) (pCNB4-S2). To select transconjugants, the mating product was plated onto LB plates with rifampicin, streptomycin and kanamycin (25 mg/l). […] Cultures from colonies of the transconjugant were grown overnight in LB medium (yeast extract 5 g/l, tryptone 10 g/l, 5 g/l NaCl) at 37° C. by shaking. Cultures were diluted 1:100 in fresh media without antibiotic selection and incubated for 2 hours at 37° C.

[7] = test system: nahR/Psal::xylS2/Pm::trp'::'lacZ; conditions: Salicylate 2 mM, 30° C., 5 hours, depending on the transconjugant
Pm::lacZ (pTSPm-lacZ) = conditions: CC118λpir pTSPm-lacZ, salicylate 2 mM, 30° C., 5 hours

Compound | Induction ratio of β-galactosidase activity (xylS2/Pm) | Induction ratio of β-galactosidase activity (nahR/Psal) | also measured
CC(=O)Oc1ccccc1C(=O)O [2-Acetyl salicylate] | 10 | 40 | –
COc1ccccc1C(=O)O [2-Metoxi-benzoate] | 10 | 33 | –
O=C(O)c1cc(Cl)cc(Cl)c1O [3,5-Dichloro-salicylate] | 1 | 18 | –
Cc1cccc(C(=O)O)c1 [3-Methyl-benzoate] | 63 | 11 | –
Cc1cccc(C(=O)O)c1O [3-Methyl-salicylate] | 46 | 17 | –
O=C(O)c1ccc(Cl)cc1O [4-Chloro-salicylate] | 1 | 33 | –
Cc1ccc(C(=O)O)c(O)c1 [4-Methyl-salicylate] | 7 | 21 | –
O=C(O)c1cc(Cl)ccc1O [5-Chloro-salicylate] | 3 | 32 | –
Cc1ccc(O)c(C(=O)O)c1 [5-Methyl-salicylate] | 19 | 30 | –
COc1ccc(O)c(C(=O)O)c1 [5-Metoxi-salicylate] | 46 | 3 | –
Nc1ccccc1C(=O)O [Antranilate] | 11 | 22 | –
O=C(O)c1ccccc1O [Salicylate] | 13 | 24 | β-gal activity ([1]; 30° C.): 67002 Miller Units; % β-gal/total proteins ([1]; SDS-PAGE densitometry): 13%; capacity of the reverse-coupled system (induction) [2]: 24 fold; XylS accumulation (western blot) ([3]; P. putida cascade cultures induced with salicylate): Increased accumulation of XylS; β-galactosidase produced in the presence of salicylate relative to benzoate ([3]; P. putida cascade transconjugants, 2 mM): about 4 fold; β-galactosidase production, share of total protein (nahR/Psal; the simple system, SDS-PAGE and densitometry): less than 0.6%; induction ratio as part of maximal activity (nahR/Psal::xylS2/Pm [4]; 0.5 mM of salicylate): 90%; β-gal activity (nahR/Psal::xylS2/Pm [4]; CC4S2PMT32, salicylate 2 mM, 30° C., 5 hours): 30383 Miller Units; time at which accumulation of β-galactosidase reached maximum value (nahR/Psal::xylS2/Pm [4]; Salicylate 2 mM added at OD600=0.2): 5 h; β-gal activity ([5]; 30° C.): 17952 Miller Units; % β-gal/total proteins ([5]; SDS-PAGE densitometry): 3.9%; β-gal activity (nahR/Psal::xylS2/Pm [6]): 39143 Miller Units; gene expression capacity [7]: 150 to 400 times; β-galactosidase production when induced [7]: 25,000-50,000 MU; β-gal activity (Pm::lacZ (pTSPm-lacZ)): 1358 Miller Units
